{"source": "patent US20080154102A1", "about": "“Intraoperative imaging methods” (priority 2006, published 2008)", "key": {"[1]": {"experiment": "Metabolism of CW800-CA, HPLC/mass spectrometry of urine samples", "type": "in vivo, pigs", "from_the_text": "As described herein, ureter visualization can usually be obtained rapidly, even in a few minutes following injection. […] To clarify the point, an HPLC/mass spectrometry (using electrospray/time-of-flight (ES-TOF) method has been made.\nUrine samples were collected from pigs (N=5), and analyzed. The dye usually can be pinpointed with a fluorescence detector equipped with ES-TOF mass spectrometry. Urine samples were first passed over a 6,000 Da cutoff gel-filtration column to remove contaminating proteins, and eluate less than 6,000 Da was analyzed on a C18 column. Buffer A was water, BioPlus (American Bioanalytical, Natick, Mass.) and Buffer B was acetonitrile. Using a gradient of 0 to 50% Buffer B over 30 min, urine samples were resolved on a 4.6×150 mm Symmetry C18 column (Waters) at a flow rate of 1 ml per minute with eluate fed into a Waters LCT ES-TOF mass spectrometer. Ion mode was set to electrospray negative (ES−), and cone and capillary voltages were set at 30 and 3000 (V), respectively. Desolvation and source temperature were set at 350, 140 (° C.), respectively. Data were analyzed with Masslynx (Waters) software."}, "[2]": {"settings": "Ohnishi et al.; cited from earlier work"}, "common bile duct [3]": {"tested_on": "common bile duct", "experiment": "Cholangiographic imaging with CW800-CA in pigs", "type": "in vivo", "settings": "for detection of beads inserted into CBD: 5 mL of 50 μM intravenously, beads 2.5 and 3.5 mm", "description": "Based on the results obtained in rats, CW800-CA was chosen as the contrast agent for a large animal model approaching the size of human. In 7 anesthetized pigs, 5 mL of 100 μM CW800-CA (15 μg/kg total) was injected into portal vein (N=3), or 5 mL of 50 μM (N=2) or 100 μM (N=2) of CW800-CA (7.5, and 15 μg/kg total, respectively) were injected intravenously.\nBeads of 2.5 or 3.5 mm in diameter were inserted into common bile duct via papilla vateri by duodenostomy (N=2) to simulate blockage of the CBD."}, "thoracic duct": {"tested_on": "thoracic duct", "experiment": "Thoracic duct visualization in the rat model", "type": "in vivo", "settings": "50 μL of 10 μM into mesenteric lymph node, 5 minutes", "description": "Additional experiments on thoracic duct visualization in the rat model were also performed using other NIR fluorescent agents."}, "[4]": {"experiment": "Fluorescence spectrometry and fluorescence quantum yield", "type": "physicochemical"}, "[5]": {"experiment": "Excretion to bile / clearance after injection", "type": "in vivo"}, "Absorbance spectrometry": {"experiment": "Absorbance spectrometry", "type": "physicochemical", "settings": "for Peak Absorbance in PBS: Table 2", "description": "(§1) Absorbance spectrometry was performed with a 1-cm path length quartz cuvette in a USB2000 fiber-optic spectrometer (Ocean Optics, Dunedin, Fla.). Fluorescence spectrometry was performed with a 1-cm path length, 1.5 mL disposable methacrylate cuvette (Fisher Scientific, Hampton, N.H.) in a HR2000 fiber-optic spectrometer, and CUV-ALL-UV four-way cuvette holder (Ocean Optics), using a 655 nm laser diode light source (OPCOM O.E. Inc., Xiamen, China) with maximum output less than 5 mW. Data acquisition was performed with a computer using an OOI-Base32 spectrometer operating software package (Ocean Optics). The spectral range of the USB2000-FL spectrometer was from 350 to 1000 nm with spectral resolution of 7.6 nm, and that of the HR2000 spectrometer was from 200 to 1100 nm with a spectral resolution of 6.7 nm."}, "ureters": {"tested_on": "ureters", "experiment": "Ureteral mapping in rats", "type": "in vivo", "description": "In rats, ureters were visualized by intravenous injection of 50 μL of CW800 CA at 10, 20, 50 and 100 μM to quantify the best concentration for […]. Fluorescence intensities of ureters, kidney, and abdominal wall were measured at 3, 5, 10, 20, and 30 min following injection."}, "[6]": {"experiment": "Fluorescence spectrometry and fluorescence quantum yield", "type": "physicochemical", "settings": "for Peak Fluorescence in PBS / Quantum Yield in PBS: Table 2", "description": "as §1\nFluorescence intensity was measured in each solvent (PBS, FBS, and methanol) at each concentration of the dye to determine the effect of the methylene blue concentration and solvents on total fluorescence yield. Fluorescence quantum yields of methylene blue in PBS, FBS, and methanol were calculated using oxazine725 in ethylene glycol (quantum yield: 19%) as a calibration standard, under the conditions of matched absorbance of methylene blue in each solvent."}, "common bile duct [7]": {"tested_on": "common bile duct", "experiment": "Cholangiographic imaging with ICG, IR-786 and CW800-CA in rats", "type": "in vivo", "description": "50 μL of 100 μM IR-786 or CW800-CA (15 μg/kg), or 1 mM ICG (150 μg/kg), was injected into portal vein in anesthetized rats. A simultaneous color video/NIR fluorescence intraoperative imaging system was employed for quantification of NIR fluorescence images. In another 32 rats, bile duct was visualized by intravenous (N=16) or portal vein injection (N=16) of 50 μL of CW800-CA at 10, 20, 50 and 100 μM to quantify the best concentration for bile duct imaging. Fluorescence intensities of bile duct, liver (right lobe), and pancreas were measured at 3, 5, 10, 20, and 30 min following injection."}, "[8]": {"tested_on": "common bile duct, vasculature, coronary artery, myocardium", "experiment": "Multi-wavelength fluorescence imaging with MB and ICG", "type": "in vivo, pigs", "settings": "pig", "description": "Therefore, MB was used to visualize CBD in an anesthetized pig, while ICG was used to visualize vasculature.\nTo evaluate the possibility of multi-wavelength fluorescent imaging, ICG and methylene blue were used.\n1 mg/kg methylene blue IV injection was followed 30 min after by 0.03 mg/kg ICG IV injection. […] NIR camera exposure time was 100 msec.\nNext, one of the diagonal branches of the coronary artery (D2) was clamped (white arrow), and then 1 mg/kg of methylene blue was injected intravenously; see the second row of images. Just after releasing the clamp, 0.03 mg/kg ICG was injected intravenously. […] The right-most image in the second row was created by merging the image of the coronary arteriography using methylene blue at clamping D2 and the image using ICG after declamping D2."}, "[9]": {"tested_on": "perforating arteries and veins", "experiment": "NIR imaging of skin perforating vessels for flap surgery", "type": "in vivo, Yorkshire pig", "settings": "35 kg pig, 0.5 mg (14 μg/kg) intravenously", "description": "To evaluate the usefulness of NIR agents for such methods, 0.5 mg (14 μg/kg) indocyanine green (ICG) was injected intravenously into a 35 kg Yorkshire pig, and the skin was imaged as described herein."}, "[10]": {"settings": "rats, portal vein injection, listed as CW800CA"}}, "note": "Entries after “also recorded” stand apart in the source; their conditions may differ."}
{"smiles": "CC1(C)C(/C=C/C2=C(Oc3ccc(S(=O)(=O)O)cc3)C(=C/C=C3/N(CCCCS(=O)(=O)O)c4ccc(S(=O)(=O)[O-])cc4C3(C)C)/CCC2)=[N+](CCCCCC(=O)O)c2ccc(S(=O)(=O)O)cc21", "note": "[CW800-CA]", "values": [{"measurement": "form in which the dye is excreted", "setting": "[1]; HPLC/ES-TOF mass spectrometry", "result": "excreted into the bile in a substantially unmetabolized form; also recorded: excreted into bile as an unmetabolized form"}, {"measurement": "fluorescence chromatograph after excretion into urine", "setting": "[1]; HPLC/mass spectrometry", "result": "essentially a single peak with the expected mass spectrum"}, {"measurement": "concentration above which significant quenching of fluorescence occurs", "setting": "[2]", "result": "above 10 μM"}, {"measurement": "detection of beads inserted into CBD", "setting": "common bile duct [3]", "result": "detected completely in 2 of 2 pigs"}, {"measurement": "detection of beads inserted into CBD", "setting": "common bile duct [3]; listed as CW800CA", "result": "All beads could be detected perfectly in each trial"}, {"measurement": "time until visualization of the CBD after dye injection", "setting": "common bile duct [3]; portal vein or intravenous injection", "result": "7 to 10", "unit": "min"}, {"measurement": "thoracic duct in the fluorescence image", "setting": "thoracic duct", "result": "clearly visualized in the fluorescence image"}, {"measurement": "emission of CW800-CA", "setting": "[4]", "result": "≈ 800 nm"}, {"measurement": "clearance after intravenous injection", "setting": "[5]", "result": "rapidly cleared by: 1) the liver and excreted into bile and 2) the kidneys and excreted into urine"}, {"measurement": "Peak Absorbance in PBS", "setting": "Absorbance spectrometry; in PBS", "result": 775, "unit": "nm"}, {"measurement": "visualization of ureters, in words", "setting": "ureters; rat", "result": "excellent visualization of ureters"}, {"measurement": "injected concentration showing the best SBR (ureter)", "setting": "ureters; rats, 50 μL (7.5 μg/kg)", "result": 50, "unit": "µM"}, {"measurement": "time of peak performance for ureter visualization", "setting": "ureters; rats, every concentration", "result": "approximately 10 minutes"}, {"measurement": "time at which ureters could be identified", "setting": "ureters; rats, intravenous injection", "result": 3, "unit": "min"}, {"measurement": "Peak Fluorescence in PBS", "setting": "[6]; in PBS", "result": 796, "unit": "nm"}, {"measurement": "Quantum Yield in PBS", "setting": "[6]; in PBS", "result": 9, "unit": "%"}, {"measurement": "selectivity among three contrast agents for bile duct imaging", "setting": "common bile duct [7]; compared with ICG and IR-786", "result": "most selective"}, {"measurement": "dose required for CBD detection, portal vein injection", "setting": "common bile duct [7]; portal vein injection", "result": "3 to 15", "unit": "µg/kg"}, {"measurement": "injected concentration showing the best SBR (CBD)", "setting": "common bile duct [7]; rats, 50 μL (7.5 μg/kg)", "result": 50, "unit": "µM"}, {"measurement": "time of peak performance for CBD visualization", "setting": "common bile duct [7]; rats, every concentration", "result": "approximately 10 minutes"}, {"measurement": "time at which CBD could be identified", "setting": "common bile duct [7]; rats, intravenous or portal injection", "result": 3, "unit": "min"}, {"measurement": "dye stacking to the liver", "setting": "common bile duct [7]; rats, portal vein injection", "result": "no significant dye stacking to the liver"}, {"measurement": "signal to background ratio (SBR) of CBD, in words", "setting": "common bile duct [7]; rats, portal vein injection", "result": "excellent signal to background ratio"}, {"measurement": "dye stacking to the liver", "setting": "common bile duct [7]; [10]", "result": "no dye stacking in the liver"}, {"measurement": "signal to background ratio (SBR) of CBD, in words", "setting": "common bile duct [7]; [10]", "result": "higher SBR than the other two"}, {"measurement": "dose required for CBD detection, systemic intravenous injection", "setting": "common bile duct [7]; systemic intravenous injection", "result": "7.5 to 15", "unit": "µg/kg"}]}
{"smiles": "CC1(C)C(/C=C/C=C/C=C/C=C2\\N(CCCCS(=O)(=O)O)c3ccc4ccccc4c3C2(C)C)=[N+](CCCCS(=O)(=O)[O-])c2ccc3ccccc3c21", "note": "[ICG, indocyanine green]", "values": [{"measurement": "thoracic duct in the fluorescence image", "setting": "thoracic duct", "result": "clearly visualized in the fluorescence image"}, {"measurement": "distribution in myocardium after arteriography", "setting": "[8]", "result": "evenly distributed over the entire myocardium"}, {"measurement": "detection of diagonal branch D2 after releasing the clamp", "setting": "[8]; 0.03 mg/kg intravenously", "result": "detected clearly"}, {"measurement": "structure shown in two-channel NIR imaging", "setting": "[8]; ICG 800 nm, MB 700 nm", "result": "highlights blood vessels"}, {"measurement": "clearance after intravenous injection", "setting": "[5]", "result": "rapidly cleared from the blood by the liver, but is only inefficiently transported into bile"}, {"measurement": "Excitation Wavelength Maximum, (FBS)", "setting": "Absorbance spectrometry; in FBS", "result": 800, "unit": "nm"}, {"measurement": "Molar Extinction Coefficient, (FBS)", "setting": "Absorbance spectrometry; in FBS", "result": "168,000 M^−1cm^−1"}, {"measurement": "molar extinction coefficient in FBS", "setting": "Absorbance spectrometry; in FBS, in M-1cm-1 (unit assumed)", "result": "168,000"}, {"measurement": "Excitation Wavelength Maximum, PBS", "setting": "Absorbance spectrometry; in PBS", "result": 779, "unit": "nm"}, {"measurement": "Peak Absorbance in PBS", "setting": "Absorbance spectrometry; in PBS", "result": 779, "unit": "nm"}, {"measurement": "Emission Wavelength Maximum, (FBS)", "setting": "[6]; in FBS", "result": 811, "unit": "nm"}, {"measurement": "Fluorescence Quantum Yield, (FBS)", "setting": "[6]; in FBS", "result": 9, "unit": "%"}, {"measurement": "ICG fluorescence relative to methylene blue fluorescence", "setting": "[6]; in FBS, from extinction coefficient and quantum yield", "result": "about 8 times"}, {"measurement": "Emission Wavelength Maximum, PBS", "setting": "[6]; in PBS", "result": 806, "unit": "nm"}, {"measurement": "Fluorescence Quantum Yield, PBS", "setting": "[6]; in PBS", "result": 1, "unit": "%"}, {"measurement": "Peak Fluorescence in PBS", "setting": "[6]; in PBS", "result": 806, "unit": "nm"}, {"measurement": "Quantum Yield in PBS", "setting": "[6]; in PBS", "result": 1, "unit": "%"}, {"measurement": "dye stacking to the liver", "setting": "common bile duct [7]; rats, portal vein injection", "result": "significant dye stacking to the liver"}, {"measurement": "identification of perforating arteries and veins", "setting": "[9]", "result": "can be identified"}]}
